Laboratory results taken from ChEMBL document CHEMBL1139505, “Synthesis and structure-activity-relationships of 1H-imidazo[4,5-c]quinolines that induce interferon production” (2005).

Key:
[1] = Minimum effective concentration required to induce interferon (IFN) production in human peripheral blood mononuclear cells (hPBMC); assay type: functional; conditions: read-out: MEC
Homo sapiens = species: Homo sapiens; experiment: Minimum effective concentration required to induce interferon (IFN) production in human peripheral blood mononuclear cells (hPBMC); NI = no induction at highest concentration (5.0 ug/mL); assay type: functional

CCCCc1nc2c(N)nc3ccccc3c2n1-c1ccccc1 showed a minimal effective concentration [1] of 0.5 µg/mL.
Nc1[nH]c2ccccc2c2ncnc1-2 showed a minimal effective concentration [1] of 0.5 µg/mL.
With CC(C)Cn1c(Oc2ccccc2)nc2c(N)nc3ccccc3c21 the MEC (Homo sapiens) was “No induction”.
For Nc1nc2ccccc2c2c1ncn2CCc1ccccc1, the minimal effective concentration [1] was 0.5 µg/mL.
In the case of CC(C)Cn1cnc2c(N)nc3ccc(Br)cc3c21, the MEC (Homo sapiens) is reported as “No induction”.
In the case of Cc1ccc2nc(N)c3ncn(CC(C)C)c3c2c1, the MEC (Homo sapiens) is reported as “No induction”.
In the case of CNc1nc2ccccc2c2c1ncn2CC(C)C, the MEC (Homo sapiens) is reported as “No induction”.
In the case of CC(C)Cn1cnc2c(N)nc3cc(O)ccc3c21, the minimal effective concentration [1] is reported as 0.5 µg/mL.
For COc1ccc2nc(N)c3ncn(CC(C)C)c3c2c1, the MEC (Homo sapiens) was “No induction”.
CCCCCCn1cnc2c(N)nc3ccccc3c21 showed a minimal effective concentration [1] of 0.5 µg/mL.
With Cc1cccc2c1nc(N)c1ncn(CC(C)C)c12 the MEC (Homo sapiens) was “No induction”.
Compound CC(C)Cn1cnc2c(N)nc3ccccc3c21 [IMIQUIMOD] has a minimal effective concentration [1] of 0.5 µg/mL.
In the case of CC(C)Cn1cnc2c(N)nc3ccc([N+](=O)[O-])cc3c21, the MEC (Homo sapiens) is reported as “No induction”.
With Cc1nc2c(N)nc3ccccc3c2n1CC(C)C the minimal effective concentration [1] was 0.05 µg/mL.
For CC(C)Cn1cnc2cnc3ccccc3c21, the MEC (Homo sapiens) was “No induction”.
In the case of Cc1cccc2nc(N)c3ncn(CC(C)C)c3c12, the MEC (Homo sapiens) is reported as “No induction”.
In the case of CCCCn1cnc2c(N)nc3ccccc3c21, the minimal effective concentration [1] is reported as 0.5 µg/mL.
Work on Cc1ccc2c(c1)nc(N)c1ncn(CC(C)C)c12 yielded a minimal effective concentration [1] of 0.5 µg/mL.
Work on Nc1nc2ccccc2c2c1ncn2CCCCc1ccccc1 yielded a minimal effective concentration [1] of 0.1 µg/mL.
CC(C)n1cnc2c(N)nc3ccccc3c21 showed a minimal effective concentration [1] of 0.5 µg/mL.
For COc1nc2c(N)nc3ccccc3c2n1CC(C)C, the MEC (Homo sapiens) was “No induction”.
With CCCCCn1cnc2c(N)nc3ccccc3c21 the minimal effective concentration [1] was 0.5 µg/mL.
In the case of Cn1cnc2c(N)nc3ccccc3c21, the minimal effective concentration [1] is reported as 0.5 µg/mL.
Work on CC(C)(O)Cn1cnc2c(N)nc3ccccc3c21 yielded a minimal effective concentration [1] of 0.5 µg/mL.
In the case of CC(C)Cn1c(-c2ccccc2)nc2c(N)nc3ccccc3c21, the MEC (Homo sapiens) is reported as “No induction”.
For CC(C)Cn1cnc2c(NC(=O)c3ccccc3)nc3ccccc3c21, the MEC (Homo sapiens) was “No induction”.
For CCCCCCCCCCCCCCCCn1cnc2c(N)nc3ccccc3c21, the MEC (Homo sapiens) was “No induction”.
Work on Nc1nc2ccccc2c2c1ncn2CC(O)CO (stereo unspecified) yielded a minimal effective concentration [1] of 5 µg/mL.
With CCCCCCc1nc2c(N)nc3ccccc3c2n1CC(C)C the minimal effective concentration [1] was 0.5 µg/mL.
In the case of CSc1nc2ccccc2c2c1ncn2CC(C)C, the MEC (Homo sapiens) is reported as “No induction”.
With CCCCCCCCn1cnc2c(N)nc3ccccc3c21 the MEC (Homo sapiens) was “No induction”.
For CC(C)Cn1cnc2c(N)nc3c(O)cccc3c21, the minimal effective concentration [1] was 1 µg/mL.
In the case of CC(C)Cn1cnc2c(N)nc3ccc(N)cc3c21, the MEC (Homo sapiens) is reported as “No induction”.
For CC(C)Cn1cnc2c(Cl)nc3ccccc3c21, the MEC (Homo sapiens) was “No induction”.
Compound CC(O)Cn1cnc2c(N)nc3ccccc3c21 (stereo unspecified) has a minimal effective concentration [1] of 0.5 µg/mL.
For COc1cccc2c1nc(N)c1ncn(CC(C)C)c12, the MEC (Homo sapiens) was “No induction”.
Compound CC(C)Cn1c(CCc2ccccc2)nc2c(N)nc3ccccc3c21 has a minimal effective concentration [1] of 1 µg/mL.
CCCn1cnc2c(N)nc3ccccc3c21 showed a minimal effective concentration [1] of 0.5 µg/mL.
With Nc1nc2ccccc2c2c1ncn2Cc1ccccc1 the minimal effective concentration [1] was 0.1 µg/mL.
CCCCCc1nc2c(N)nc3ccccc3c2n1CC(C)C showed a minimal effective concentration [1] of 0.05 µg/mL.
With CCc1nc2c(N)nc3ccccc3c2n1CC(C)(C)O the minimal effective concentration [1] was 0.05 µg/mL.
With Nc1nc2ccccc2c2c1ncn2-c1ccccc1 the MEC (Homo sapiens) was “No induction”.
In the case of CCCc1nc2c(N)nc3ccccc3c2n1CC(C)C, the minimal effective concentration [1] is reported as 0.05 µg/mL.
With COc1nc2ccccc2c2c1ncn2CC(C)C the MEC (Homo sapiens) was “No induction”.
With CC(C)Cn1c(C(F)(F)F)nc2c(N)nc3ccccc3c21 the MEC (Homo sapiens) was “No induction”.
For CCCCCCCc1nc2c(N)nc3ccccc3c2n1CC(C)C, the minimal effective concentration [1] was 1 µg/mL.
In the case of Nc1nc2ccccc2c2c1ncn2CCCc1ccccc1, the MEC (Homo sapiens) is reported as “No induction”.
For CCc1nc2c(N)nc3ccccc3c2n1CC(C)C, the minimal effective concentration [1] was 0.05 µg/mL.
CC(C)Cn1c(Cc2ccccc2)nc2c(N)nc3ccccc3c21 gave a minimal effective concentration [1] of 0.05 µg/mL.
For CC(C)Cn1cnc2c(N)nc3ccc(O)cc3c21, the MEC (Homo sapiens) was “No induction”.
For CC(C)Cn1cnc2c(N)nc3ccc(Cl)cc3c21, the MEC (Homo sapiens) was “No induction”.
In the case of Cc1nc2c(N)nc3ccccc3c2n1CC(C)(C)O, the minimal effective concentration [1] is reported as 0.05 µg/mL.
In the case of CC(C)Cn1cnc2c(O)nc3ccccc3c21, the MEC (Homo sapiens) is reported as “No induction”.
With CC(C)Cc1nc2c(N)nc3ccccc3c2n1CC(C)(C)O the minimal effective concentration [1] was 0.01 µg/mL.
Compound COc1ccc2c(c1)nc(N)c1ncn(CC(C)C)c12 has a minimal effective concentration [1] of 1 µg/mL.
In the case of CC(C)(C)n1cnc2c(N)nc3ccccc3c21, the MEC (Homo sapiens) is reported as “No induction”.
In the case of CCn1cnc2c(N)nc3ccccc3c21, the minimal effective concentration [1] is reported as 0.5 µg/mL.
Compound CCCCCCCn1cnc2c(N)nc3ccccc3c21 has a minimal effective concentration [1] of 0.5 µg/mL.
With CCCCc1nc2c(N)nc3ccccc3c2n1CC(C)C the minimal effective concentration [1] was 0.01 µg/mL.
Work on Nc1nc2ccccc2c2c1ncn2CCO yielded a minimal effective concentration [1] of 0.5 µg/mL.
CC(C)Cn1c(COc2ccccc2)nc2c(N)nc3ccccc3c21 gave a minimal effective concentration [1] of 0.1 µg/mL.
